According to the supplement of paper PMC11208160:

Assay: recombinant UMI read abundance after kanamycin selection (control-corrected) (log10(CPM+1)); higher = more efficient recombination; extreme values may be limits of the assay; sequences stand for … in AGTGCAGAGAAAATCGGCCAGTTTTCTCTGCCTGCAGTCCGCATGCCGTGGGACCCCTTGGGTTCTAACCTGTTGCCTAGATTTATGCAGCGGACTGCCTTTCTCCCAAAGTGATAAACCGG…AGGTTGGTTTCACT; site = the 11-nt donor
Summary of the method: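 Each donor and donor-binding-loop pair was tracked by a 12-nt UMI on a plasmid carrying a promoterless kanamycin gene. With a second plasmid supplying a fixed target and T7-inducible IS621 bridge recombinase, the pool was plated in Escherichia coli on IPTG (0.07 mM) plus kanamycin or unselected. Sequencing of recombinant UMIs across the donor–target junction gave counts expressed as log10(CPM+1) after replicate averaging and control-derived scaling.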
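Also: IS621 bridge recombinase in Escherichia coli cells against a fixed T5 target plasmid.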

| Sequence | recombinant UMI read abundance (log10) |
| --- | --- |
| CTTCTCTCATGGACCGGTTTTCCCGGTAATCCGTATTTGTA (site CTTCTCTCTAA) | 0.394 |
| CTTCTCTCATGGACCGGTTTTCCCGGTAATCCGTATTTGTA (site CTTCTCTCTCA) | 0.552 |
| CTTCTCTCATGGACCGGTTTTCCCGGTAATCCGTATTTGTA (site CTTCTCTCTGA) | 0.448 |
| CTTCTCTCATGGACCGGTTTTCCCGGTAATCCGTATTTGTA (site CTTCTCTCTTA) | 2.28 |
| CTTCTCTCATGGACCGGTTTTCCCGGTAATCCGTATTTGTA (site CTTCTCTCTTC) | 0.278 |
| CTTCTCTCATGGACCGGTTTTCCCGGTAATCCGTATTTGTA (site CTTCTCTCTTG) | 0.558 |
| CTTCTCTCATGGACCGGTTTTCCCGGTAATCCGTATTTGTA (site CTTCTCTCTTT) | 0.676 |
| CTTCTCTCATGGACCGGTTTTCCCGGTAATCCGTATTTGTA (site CTTCTGTCTTA) | 0.00544 |
| CTTCTCTCATGGACCGGTTTTCCCGGTAATCCGTATTTGTA (site CTTCTTTCTTA) | 0 |
| CTTCTCTCATGGACCGGTTTTCCCGGTAATCCGTATTTGTA (site CTTGTCTCTTA) | 0.00827 |
| CTTCTCTCATGGACCGGTTTTCCCGGTAATCCGTATTTGTA (site CTTTTCTCTTA) | 0 |
| CTTCTCTCATGGACCGGTTTTCCCGGTAATCCGTATTTGTA (site GTTCTCTCTTA) | 0.0236 |
| CTTCTCTCATGGACCGGTTTTCCCGGTAATCCGTATTTGTA (site TTTCTCTCTTA) | 0.396 |
| CTTCTCTCATGGACCGGTTTTCCCGGTAATCCGTATTTGTG (site CTTCTCTCTAA) | 0.0117 |
| CTTCTCTCATGGACCGGTTTTCCCGGTAATCCGTATTTGTG (site CTTCTCTCTCA) | 0.154 |
| CTTCTCTCATGGACCGGTTTTCCCGGTAATCCGTATTTGTG (site CTTCTCTCTGA) | 0 |
| CTTCTCTCATGGACCGGTTTTCCCGGTAATCCGTATTTGTG (site CTTCTCTCTTA) | 0 |
| CTTCTCTCATGGACCGGTTTTCCCGGTAATCCGTATTTGTT (site CTTCTCTCTAA) | 2.22 |
| CTTCTCTCATGGACCGGTTTTCCCGGTAATCCGTATTTGTT (site CTTCTCTCTCA) | 0.0142 |
| CTTCTCTCATGGACCGGTTTTCCCGGTAATCCGTATTTGTT (site CTTCTCTCTGA) | 0 |
| CTTCTCTCATGGACCGGTTTTCCCGGTAATCCGTATTTGTT (site CTTCTCTCTTA) | 0.757 |
| CTTCTGTCATGGACCGGTTTTCCCGGTAATCCGTATTTGTA (site CTTCTATCTTA) | 2.41 |
| CTTCTGTCATGGACCGGTTTTCCCGGTAATCCGTATTTGTA (site CTTCTCTCTTA) | 0.00482 |

| Sequence | recombinant UMI read abundance (log10) |
| --- | --- |
| CTTCTGTCATGGACCGGTTTTCCCGGTAATCCGTATTTGTA (site CTTCTGTCTTA) | 2.01 |
| CTTCTGTCATGGACCGGTTTTCCCGGTAATCCGTATTTGTA (site CTTCTTTCTTA) | 0 |
| CTTCTTTCATGGACCGGTTTTCCCGGTAATCCGTATTTGAC (site CTTCTTTCTGT) | 0 |
| CTTCTTTCATGGACCGGTTTTCCCGGTAATCCGTATTTGTA (site CTTCTATCTTA) | 0.00989 |
| CTTCTTTCATGGACCGGTTTTCCCGGTAATCCGTATTTGTA (site CTTCTCTCTTA) | 0 |
| CTTCTTTCATGGACCGGTTTTCCCGGTAATCCGTATTTGTA (site CTTCTGTCTTA) | 0.00353 |
| CTTCTTTCATGGACCGGTTTTCCCGGTAATCCGTATTTGTA (site CTTCTTTCTTA) | 0 |
| CTTGGACCATGGACCGGTTTTCCCGGTAATCCGTATTTGTT (site CTTGGACCTAA) | 0.00553 |
| CTTGGATCATGGACCGGTTTTCCCGGTAATCCGTATTTGAC (site CTAGTATCTGT) | 0 |
| CTTGGATCATGGACCGGTTTTCCCGGTAATCCGTATTTGAC (site CTTGGATCTGT) | 0 |
| CTTGGATCATGGACCGGTTTTCCCGGTAATCCGTATTTGCA (site CTTGGATCTTG) | 2.59 |
| CTTGGCCCATGGACCGGTTTTCCCGGTAATCCGTATTTGTA (site CTTGGCCCTTA) | 0.0132 |
| CTTGTATCATGGACCGGTTTTCCCGGTAATCCGTATTTGAT (site CTAGTATCTGT) | 0 |
| CTTGTATCATGGACCGGTTTTCCCGGTAATCCGTATTTGAT (site CTTGTATCTAT) | 1.29 |
| CTTGTCTCATGGACCGGTTTTCCCGGTAATCCGTATTTGAA (site CTTGTCTCTTT) | 1.85 |
| CTTGTGGCATGGACCGGTTTTCCCGGTAATCCGTATTTGGA (site CTTGTGGCTTC) | 0.306 |
| CTTGTGTCATGGACCGGTTTTCCCGGTAATCCGTATTTGAC (site CTAGTATCTGT) | 0 |
| CTTGTGTCATGGACCGGTTTTCCCGGTAATCCGTATTTGAC (site CTTGTGTCTGT) | 0.301 |
| CTTTAAACATGGACCGGTTTTCCCGGTAATCCGTATTTGTA (site CTTTAAACTTA) | 1.06 |
| CTTTACACATGGACCGGTTTTCCCGGTAATCCGTATTTGCT (site CTATACACTAG) | 2.27 |
| CTTTACACATGGACCGGTTTTCCCGGTAATCCGTATTTGCT (site CTCTACACTAG) | 1.2 |
| CTTTACACATGGACCGGTTTTCCCGGTAATCCGTATTTGCT (site CTGTACACTAG) | 1.59 |
| CTTTACACATGGACCGGTTTTCCCGGTAATCCGTATTTGCT (site CTTTACACTAG) | 1.81 |

| Sequence | recombinant UMI read abundance (log10) |
| --- | --- |
| CTTTACACATGGACCGGTTTTCCCGGTAATCCGTATTTGGG (site CTTTACACTCC) | 0.147 |
| CTTTACGCATGGACCGGTTTTCCCGGTAATCCGTATTTGTT (site CTTTACGCTAA) | 0.6 |
| CTTTCGGCATGGACCGGTTTTCCCGGTAATCCGTATTTGTG (site CTTTCGGCTCA) | 0.003 |
| GAAAACGCATGGACCGGTTTTCCCGGTAATCCGTATTTGGA (site GAAAACGCTTC) | 1.02 |
| GAAACCTCATGGACCGGTTTTCCCGGTAATCCGTATTTGGG (site GAAACCTCTCC) | 0.698 |
| GAACGTGCATGGACCGGTTTTCCCGGTAATCCGTATTTGTC (site GAACGTGCTGA) | 2.1 |
| GAAGAGTCATGGACCGGTTTTCCCGGTAATCCGTATTTGTT (site GAAGAATCTAA) | 3.37 |
| GAAGAGTCATGGACCGGTTTTCCCGGTAATCCGTATTTGTT (site GAAGACTCTAA) | 0.941 |
| GAAGAGTCATGGACCGGTTTTCCCGGTAATCCGTATTTGTT (site GAAGAGTCTAA) | 2.91 |
| GAAGAGTCATGGACCGGTTTTCCCGGTAATCCGTATTTGTT (site GAAGATTCTAA) | 0.417 |
| GAAGATTCATGGACCGGTTTTCCCGGTAATCCGTATTTGCT (site GAAGATTCTAA) | 0.178 |
| GAAGATTCATGGACCGGTTTTCCCGGTAATCCGTATTTGCT (site GAAGATTCTAC) | 0 |
| GAAGATTCATGGACCGGTTTTCCCGGTAATCCGTATTTGCT (site GAAGATTCTAG) | 2.54 |
| GAAGATTCATGGACCGGTTTTCCCGGTAATCCGTATTTGCT (site GAAGATTCTAT) | 0 |
| GAAGATTCATGGACCGGTTTTCCCGGTAATCCGTATTTGTC (site GAAGATTCTAA) | 0.564 |
| GAAGATTCATGGACCGGTTTTCCCGGTAATCCGTATTTGTC (site GAAGATTCTCA) | 0 |
| GAAGATTCATGGACCGGTTTTCCCGGTAATCCGTATTTGTC (site GAAGATTCTGA) | 2.29 |
| GAAGATTCATGGACCGGTTTTCCCGGTAATCCGTATTTGTC (site GAAGATTCTTA) | 0.965 |
| GAAGCATCATGGACCGGTTTTCCCGGTAATCCGTATTTGCA (site GAAGCATCTTG) | 2.67 |
| GAAGCGTCATGGACCGGTTTTCCCGGTAATCCGTATTTGTA (site GAAGCGTCTTA) | 2.88 |
| GAAGGGTCATGGACCGGTTTTCCCGGTAATCCGTATTTGTT (site GAAGGGTCTAA) | 2.74 |
| GAAGTAGCATGGACCGGTTTTCCCGGTAATCCGTATTTGGG (site GAAGTAGCTCC) | 0.618 |
